From PMC4368105, “Oleic Acid Metabolism via a Conserved Cytochrome P450 System-Mediated ω-Hydroxylation in the Bark Beetle-Associated Fungus Grosmannia clavigera” (PLoS ONE, 2015)

Columns and labels:
[1] = target: T1, GsCYP630B18 with GsCPR1 (RS1) (Leptographium clavigerum, UniProt F0XBA3); experiment: reconstituted membranes, LC/MS of 18-hydroxyoleic acid product; assay type: biochemical; settings: NADPH, 50 μM oleic acid, pH 7.4, room temperature, 1 h; GsCPR1 as redox partner
T1 construct: gene CMQ_5365; with NADPH--cytochrome P450 reductase
T1 sequence (F0XBA3 1-522): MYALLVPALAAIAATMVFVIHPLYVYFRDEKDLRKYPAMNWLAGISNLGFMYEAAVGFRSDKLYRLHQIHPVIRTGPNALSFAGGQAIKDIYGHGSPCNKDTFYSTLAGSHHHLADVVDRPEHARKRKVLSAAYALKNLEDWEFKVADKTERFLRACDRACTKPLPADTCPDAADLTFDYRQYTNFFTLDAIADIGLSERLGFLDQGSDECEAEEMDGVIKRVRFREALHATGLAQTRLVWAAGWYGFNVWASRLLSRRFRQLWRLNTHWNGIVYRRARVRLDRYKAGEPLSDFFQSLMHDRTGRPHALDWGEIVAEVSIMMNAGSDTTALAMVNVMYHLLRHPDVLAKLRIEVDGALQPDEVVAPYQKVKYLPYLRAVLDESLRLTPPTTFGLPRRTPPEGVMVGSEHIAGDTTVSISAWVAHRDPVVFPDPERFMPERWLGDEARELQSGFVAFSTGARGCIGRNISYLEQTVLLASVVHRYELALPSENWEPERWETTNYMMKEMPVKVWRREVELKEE
T1 sequence (F0XUV1 1-690 partner): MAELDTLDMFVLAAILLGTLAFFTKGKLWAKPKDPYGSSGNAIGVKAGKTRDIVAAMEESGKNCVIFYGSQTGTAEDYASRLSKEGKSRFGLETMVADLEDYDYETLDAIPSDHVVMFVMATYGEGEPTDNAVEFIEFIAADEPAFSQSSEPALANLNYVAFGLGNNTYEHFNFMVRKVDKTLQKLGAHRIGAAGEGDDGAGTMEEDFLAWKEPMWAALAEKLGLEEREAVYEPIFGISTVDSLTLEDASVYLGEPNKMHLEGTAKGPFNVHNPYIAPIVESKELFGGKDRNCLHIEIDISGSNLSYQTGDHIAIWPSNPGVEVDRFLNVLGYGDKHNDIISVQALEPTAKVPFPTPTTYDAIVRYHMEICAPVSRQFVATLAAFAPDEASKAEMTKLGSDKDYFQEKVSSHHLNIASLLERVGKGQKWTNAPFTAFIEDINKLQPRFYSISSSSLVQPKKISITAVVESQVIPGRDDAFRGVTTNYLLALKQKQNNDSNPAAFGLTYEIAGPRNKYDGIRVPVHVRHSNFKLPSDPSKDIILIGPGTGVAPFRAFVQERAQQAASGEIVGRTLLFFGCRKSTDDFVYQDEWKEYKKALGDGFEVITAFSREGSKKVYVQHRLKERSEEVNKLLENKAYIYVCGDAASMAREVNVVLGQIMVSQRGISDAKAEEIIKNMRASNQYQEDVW

[2] = target: T2, GsCYP630B18 with GsCPR2 (RS2) (Leptographium clavigerum, UniProt F0XBA3); experiment: as above; assay type: biochemical; settings: NADPH, 50 μM oleic acid, pH 7.4, room temperature, 1 h; GsCPR2 as redox partner
T2 construct: gene CMQ_5365; with NADPH--cytochrome P450 reductase
T2 sequence (F0XBA3 1-522): T1 sequence (F0XBA3 1-522)
T2 sequence (F0XBA4 1-695 partner): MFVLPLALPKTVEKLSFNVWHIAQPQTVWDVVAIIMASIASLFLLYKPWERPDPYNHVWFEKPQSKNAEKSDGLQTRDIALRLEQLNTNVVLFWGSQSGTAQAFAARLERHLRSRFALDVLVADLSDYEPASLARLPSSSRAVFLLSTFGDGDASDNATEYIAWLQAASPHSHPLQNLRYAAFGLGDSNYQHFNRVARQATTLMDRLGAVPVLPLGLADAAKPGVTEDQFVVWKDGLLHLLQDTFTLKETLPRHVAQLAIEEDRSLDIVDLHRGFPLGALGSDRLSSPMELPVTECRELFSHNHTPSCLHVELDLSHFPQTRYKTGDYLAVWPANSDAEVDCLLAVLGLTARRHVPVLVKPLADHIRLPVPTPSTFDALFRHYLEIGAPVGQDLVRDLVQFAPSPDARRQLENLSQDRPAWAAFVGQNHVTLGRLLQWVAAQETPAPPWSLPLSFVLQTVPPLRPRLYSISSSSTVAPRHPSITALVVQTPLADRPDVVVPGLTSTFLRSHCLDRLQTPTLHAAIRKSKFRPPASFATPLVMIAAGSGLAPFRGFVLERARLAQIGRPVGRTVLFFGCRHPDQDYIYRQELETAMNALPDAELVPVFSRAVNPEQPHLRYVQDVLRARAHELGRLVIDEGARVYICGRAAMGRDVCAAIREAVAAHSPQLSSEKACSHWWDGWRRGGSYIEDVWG

CCCCCCCC/C=C\CCCCCCCC(=O)O [oleic acid]
reconstituted membranes, LC/MS of 18-hydroxyoleic acid product [1]: CYP630B18 converted oleic acid, but none of the other tested compounds
reconstituted membranes, LC/MS of 18-hydroxyoleic acid product [2]: CYP630B18 converted oleic acid, but none of the other tested compounds
